Data taken from US12338220B2, “Antiviral pyrazolopiridinone compounds” (Novartis AG, priority 2019, dated 2025).
Where two headings read alike, the source gives them in different places.

What was measured:
[1] = target: CMV-polymerase (Human cytomegalovirus (strain AD169) (HHV-5) (Human herpesvirus 5), UniProt P08546); experiment: biochemical
[2] = test system: CMV; experiment: microbe, parasite or virus in culture; type: cell-based; details: Human betaherpesvirus 5, 72 h, read-out: CMV-Luc Cellular EC50, NN-NHDF cells, MOI 1, 72 hrs
[3] = target: HSV-polymerase (Human herpesvirus 1 (strain 17) (HHV-1) (Human herpes simplex virus 1), UniProt P04293); experiment: biochemical
[4] = test system: HCMV-Rluc virus (AD169 pp28-hRluc rUL131); experiment: CMV Luciferase Assay of Compounds 243-262 in ARPE-19 cells; type: cell-based; details: Human betaherpesvirus 5, AD169, ARPE-19, 72 h, read-out: CMV-Luc Cellular EC50 in ARPE-19
Experimental: CMV Luciferase Assay of Compounds 243-262.
Compounds 243-262 were tested in a luminescence assay as follows.
ARPE-19 cells were maintained in growth medium (DMEM/F12 Glutamax+10 fetal bovine serum (FBS)+PenStrep) and, before reaching full confluence, were transferred to a centrifuge tube and spun for 5 minutes at 1000 rpm. The cells were resuspended in assay medium (DMEM/F12 Glutamax+2% FBS+PenStrep) and counted. Cell density was adjusted to one million cells per milliliter and infected with HCMV-Rluc virus (AD169 pp28-hRluc rUL131; MOI 0.6) in a 50 ml conical tube for 2 hours while shaking. After dilution of the infectious suspension ten-fold (to 100,000 cells per milliliter), 8000 cells are directly plated in 384-well plates pre-spotted with the compound to be tested. The cells were incubated for 72 hours at 37 degrees Celsius. Cells were then placed at room temperature and allowed to equilibrate for 20 minutes before addition of the Renilla-Glo (Promega) reagent. After a 10-minute incubation at room temperature, luminescence was measured on a microplate reader.

[5] = CMV-polymerase Biochemical IC50
[6] = read-out: CMV-polymerase Biochemical IC50
[7] = read-out: HSV-polymerase Biochemical IC50

Compound: CC(=O)NCC(C)(C)S(=O)(=O)C1(CN2CCc3c(C(=O)NCc4ccc(C#N)cc4)nn(C)c3C2=O)CC1 [Example 72, 6-((1-((1-Acetamido-2-methylpropan-2-yl)sulfonyl)cyclopropyl)methyl)-N-(4-cyanobenzyl)-1-methyl-7-oxo-4,5,6,7-tetrahydro-1H-pyrazolo[3,4-c]pyridine-3-carboxamide]
- IC50 [1, 5]: 2 nM
- EC50 [2]: 83 nM
- IC50 [3]: 51 nM

Compound: Cn1nc(C(=O)NCc2ccc(Cl)cc2)c2c1C(=O)N(CC1(S(=O)(=O)C(C)(C)COCCN)CC1)CC2 [Example 93, 6-((1-((1-(2-Aminoethoxy)-2-methylpropan-2-yl)sulfonyl)cyclopropyl)methyl)-N-(4-chlorobenzyl)-1-methyl-7-oxo-4,5,6,7-tetrahydro-1H-pyrazolo[3,4-c]pyridine-3-carboxamide]
- IC50 [1, 6]: 1 nM
- EC50 [2]: 5 nM
- IC50 [3]: 25 nM

Compound: Cn1nc(C(=O)NCc2ccc(F)cc2)c2c1C(=O)N(CC1(S(=O)(=O)C(C)(C)COCCN)CC1)CC2 [Example 94, 6-((1-((1-(2-aminoethoxy)-2-methylpropan-2-yl)sulfonyl)cyclopropyl)methyl)-N-(4-fluorobenzyl)-1-methyl-7-oxo-4,5,6,7-tetrahydro-1H-pyrazolo[3,4-c]pyridine-3-carboxamide]
- IC50 [1, 6]: 9 nM
- EC50 [2]: 22 nM
- IC50 [3]: 54 nM

Compound: Cn1nc(C(=O)NCc2ccc(Cl)cc2)c2c1C(=O)N(CC1(S(=O)(=O)C3(COCCN)CC3)CC1)CC2 [Example 95, 6-((1-((1-((2-Aminoethoxy)methyl)cyclopropyl)sulfonyl)cyclopropyl)methyl)-N-(4-chlorobenzyl)-1-methyl-7-oxo-4,5,6,7-tetrahydro-1H-pyrazolo[3,4-c]pyridine-3-carboxamide]
- IC50 [1, 6]: 2 nM
- EC50 [2]: 11 nM
- IC50 [3]: 25 nM

Compound: Cn1nc(-c2cn(Cc3ccc(C#N)cc3)nn2)c2c1C(=O)N(CC1(S(=O)(=O)C(C)(C)CO)CC1)CC2 [Example 105, 4-((4-(6-((1-((1-Hydroxy-2-methylpropan-2-yl)sulfonyl)cyclopropyl)methyl)-1-methyl-7-oxo-4,5,6,7-tetrahydro-1H-pyrazolo[3,4-c]pyridin-3-yl)-1H-1,2,3-triazol-1-yl)methyl)benzonitrile]
- IC50 [1, 6]: 1 nM
- EC50 [2]: 42 nM
- IC50 [3]: 32 nM

Compound: Cn1nc(C2=NO[C@@H](c3ccc(C#N)cc3)C2)c2c1C(=O)N(CC1(S(=O)(=O)C(C)(C)CO)CC1)CC2 [Example 107, (R)-4-(3-(6-((1-((1-Hydroxy-2-methylpropan-2-yl)sulfonyl)cyclopropyl)methyl)-1-methyl-7-oxo-4,5,6,7-tetrahydro-1H-pyrazolo[3,4-c]pyridin-3-yl)-4,5-dihydroisoxazol-5-yl)benzonitrile]
- IC50 [1, 6]: 872 nM
- EC50 [2]: > 10000 nM
- IC50 [3, 7]: > 25000 nM

Compound: Cn1nc(C2=NO[C@H](c3ccc(C#N)cc3)C2)c2c1C(=O)N(CC1(S(=O)(=O)C(C)(C)CO)CC1)CC2 [Example 108, (S)-4-(3-(6-((1-((1-hydroxy-2-methylpropan-2-yl)sulfonyl)cyclopropyl)methyl)-1-methyl-7-oxo-4,5,6,7-tetrahydro-1H-pyrazolo[3,4-c]pyridin-3-yl)-4,5-dihydroisoxazol-5-yl)benzonitrile]
- IC50 [1, 6]: 1 nM
- EC50 [2]: 32 nM
- IC50 [3, 7]: 47 nM

Compound: Cn1nc(C(=O)NCc2ccc(Cl)cc2)c2c1C(=O)N(CC1(S(=O)(=O)C(C)(C)C(N)=O)CC1)CC2 [Example 109, 6-((1-((1-amino-2-methyl-1-oxopropan-2-yl)sulfonyl)cyclopropyl)methyl)-N-(4-chlorobenzyl)-1-methyl-7-oxo-4,5,6,7-tetrahydro-1H-pyrazolo[3,4-c]pyridine-3-carboxamide]
- IC50 [1, 6]: 3 nM
- EC50 [2]: 78 nM
- IC50 [3]: 76 nM

Compound: Cn1nc(C(=O)NCc2ccc(C#N)cc2)c2c1C(=O)N(CC1(S(=O)(=O)C(C)(C)CCO)CC1)CC2 [Example 113, N-(4-Cyanobenzyl)-6-((1-((4-hydroxy-2-methylbutan-2-yl)sulfonyl)cyclopropyl)methyl)-1-methyl-7-oxo-4,5,6,7-tetrahydro-1H-pyrazolo[3,4-c]pyridine-3-carboxamide]
- IC50 [1, 6]: 3 nM
- EC50 [2]: 36 nM
- IC50 [3]: 38 nM

Compound: CNS(=O)(=O)C1(CN2CCc3c(C(=O)NCc4ccc(C#N)cc4)nn(C)c3C2=O)CC1 [Example 123, N-(4-cyanobenzyl)-1-methyl-6-((1-(N-methylsulfamoyl)cyclopropyl)methyl)-7-oxo-4,5,6,7-tetrahydro-1H-pyrazolo[3,4-c]pyridine-3-carboxamide]
- IC50 [1, 6]: 9 nM
- EC50 [2]: 157 nM
- IC50 [3]: 196 nM

Compound: Cn1nc(C(=O)NCc2ccc(C#N)cc2)c2c1C(=O)N(CC1(S(=O)(=O)N3CC(O)C3)CC1)CC2 [Example 128, N-(4-Cyanobenzyl)-6-((1-((3-hydroxyazetidin-1-yl)sulfonyl)cyclopropyl)methyl)-1-methyl-7-oxo-4,5,6,7-tetrahydro-1H-pyrazolo[3,4-c]pyridine-3-carboxamide]
- IC50 [1, 5]: 5 nM
- EC50 [2]: 94 nM
- IC50 [3]: 137 nM

Compound: Cc1cc(NS(=O)(=O)C2(CN3CCc4c(C(=O)NCc5ccc(C#N)cc5)nn(C)c4C3=O)CC2)no1 [Example 165, N-(4-cyanobenzyl)-1-methyl-6-((1-(N-(5-methylisoxazol-3-yl)sulfamoyl)cyclopropyl)methyl)-7-oxo-4,5,6,7-tetrahydro-1H-pyrazolo[3,4-c]pyridine-3-carboxamide]
- IC50 [1, 6]: 1 nM
- EC50 [2]: 136 nM
- IC50 [3]: 14 nM

Compound: Cn1nc(C(=O)NCc2ccc(C#N)cc2)c2c1C(=O)N(CC1(S(=O)(=O)C3COC3)CC1)CC2 [Example 168, N-(4-cyanobenzyl)-1-methyl-6-((1-(oxetan-3-ylsulfonyl)cyclopropyl)methyl)-7-oxo-4,5,6,7-tetrahydro-1H-pyrazolo[3,4-c]pyridine-3-carboxamide]
- IC50 [1, 5]: 4 nM
- EC50 [2]: 72 nM
- IC50 [3, 7]: 97 nM

Compound: C[C@H](NC(=O)c1nn(C)c2c1CCN(CC1(S(=O)(=O)C(C)(CO)CO)CC1)C2=O)c1ccc(Cl)cc1 [Example 177, (S)-N-(1-(4-Chlorophenyl)ethyl)-6-((1-((1,3-dihydroxy-2-methylpropan-2-yl)sulfonyl)cyclopropyl)methyl)-1-methyl-7-oxo-4,5,6,7-tetrahydro-1H-pyrazolo[3,4-c]pyridine-3-carboxamide]
- IC50 [1, 6]: 4 nM
- EC50 [2]: 168 nM
- IC50 [3]: 122 nM

Compound: C[C@@H](NC(=O)c1nn(C)c2c1CCN(CC1(S(=O)(=O)C(C)(CO)CO)CC1)C2=O)c1ccc(Cl)cc1 [Example 178, (R)-N-(1-(4-Chlorophenyl)ethyl)-6-((1-((1,3-dihydroxy-2-methylpropan-2-yl)sulfonyl)cyclopropyl)methyl)-1-methyl-7-oxo-4,5,6,7-tetrahydro-1H-pyrazolo[3,4-c]pyridine-3-carboxamide]
- IC50 [1, 6]: 240 nM
- EC50 [2]: 9720 nM
- IC50 [3]: 8060 nM

Compound: Cn1nc(C(=O)NCc2ccc(C#N)cc2)c2c1C(=O)N(CC1(S(=O)(=O)Nc3cccc(CO)n3)CC1)CC2 [Example 243, N-(4-cyanobenzyl)-6-((1-(N-(6-(hydroxymethyl)pyridin-2-yl)sulfamoyl)cyclopropyl)methyl)-1-methyl-7-oxo-4,5,6,7-tetrahydro-1H-pyrazolo[3,4-c]pyridine-3-carboxamide]
- EC50 [4]: 115 nM

Compound: CC(=O)Nc1cccc(NS(=O)(=O)C2(CN3CCc4c(C(=O)NCc5ccc(C#N)cc5)nn(C)c4C3=O)CC2)n1 [Example 244, 6-((1-(N-(6-acetamidopyridin-2-yl)sulfamoyl)cyclopropyl)methyl)-N-(4-cyanobenzyl)-1-methyl-7-oxo-4,5,6,7-tetrahydro-1H-pyrazolo[3,4-c]pyridine-3-carboxamide]
- EC50 [4]: 116 nM

Compound: Cn1nc(C(=O)NCc2ccc(C#N)cc2)c2c1C(=O)N(CC1(S(=O)(=O)Nc3cnccn3)CC1)CC2 [Example 245, N-(4-cyanobenzyl)-1-methyl-7-oxo-6-((1-(N-(pyrazin-2-yl)sulfamoyl)cyclopropyl)methyl)-4,5,6,7-tetrahydro-1H-pyrazolo[3,4-c]pyridine-3-carboxamide]
- EC50 [4]: 181 nM

Compound: Cn1nc(C(=O)NCc2ccc(C#N)cc2)c2c1C(=O)N(CC1(S(=O)(=O)Nc3ccccc3)CC1)CC2 [Example 246, N-(4-cyanobenzyl)-1-methyl-7-oxo-6-((1-(N-phenylsulfamoyl)cyclopropyl)methyl)-4,5,6,7-tetrahydro-1H-pyrazolo[3,4-c]pyridine-3-carboxamide]
- EC50 [4]: 74.5 nM

Compound: Cn1nc(C(=O)NCc2ccc(C#N)cc2)c2c1C(=O)N(CC1(S(=O)(=O)Nc3ncccc3F)CC1)CC2 [Example 247, N-(4-cyanobenzyl)-6-((1-(N-(3-fluoropyridin-2-yl)sulfamoyl)cyclopropyl)methyl)-1-methyl-7-oxo-4,5,6,7-tetrahydro-1H-pyrazolo[3,4-c]pyridine-3-carboxamide]
- EC50 [4]: 388 nM
